Reference: publication PMC5267425, “Identification of small molecule modulators of HIV-1 Tat and Rev protein accumulation” (Retrovirology, 2017)
“And” between values parts separate entries of the source, which are not always exact repeats. Identical values can stand only once.

Tested on: alternative splicing of host transcripts in HeLa rtTA HIV∆Mls cells
Experiment: RT-PCR of host alternative splicing events (PSI), capillary electrophoresis
Type: cell-based
Set-up: PSI ZNF827_1 / PSI RAN_1 / PSI SEC24B_1 / PSI SMN2_1 / PSI TRIM37_1 / PSI RPS24_1 / PSI PDCL_1 / PSI SMN2_2 / PSI SETD5_1 / PSI RAI14_1 / PSI TPM1_1 / PSI SPAG9_1 / PSI POLDIP3_1 / PSI SRPK2_1 / PSI POMT1_1: concentration or dose not given beside the values
Conditions: for DPSI TPM1_1: P Value 0.330
Protocol: To assess the effect of compounds on expression/alternative splicing of cellular RNA, two approaches were used. For both, total RNA was prepared from DMSO or compound-treated cells. In the first assay, samples were assayed by medium throughput RT-PCR to determine the inclusion levels of alternatively spliced exons and splice sites located in 73 selected events. 73 primer sets containing a fluorescently (5-FAM) labeled primer for each, were used in RT-PCR. PCR products generated were denatured in formamide and quantified using ABI Prism capillary sequencer (Life Technologies). The fragment analysis was performed on the PeakScanner software (Life Technologies) in batch mode and automated using custom scripts written in Python. The inclusion level of each exon was calculated as the amount of transcripts carrying the alternative exon relative to the total amount of all transcripts detected in the PCR reaction and results are summarized for compound-treatment in comparison to DMSO treatment. In the second assay, extracted RNA was processed using the Illumina TruSeq RNA Sample Preparation Kit (Illumina) according to the manufacturer’s instructions. The cDNA library generated was validated (passed quality control on a Bioanalyzer 1000 DNA chip (Agilent)), normalized and pooled for cluster generation. cDNA libraries were sequenced on the Illumina HiSeq 2500 (paired-end, 125 bp) with version 4 chemistry following manufacturer’s protocols. The full human genome and transcriptomic sequences were downloaded from the UCSC Genome Browser (genome.ucsc.edu) database and Ensembl (www.ensembl.org), respectively, as described by Irimia et al.. Exon annotations and genomic coordinates for alternative splicing (AS) analysis were derived from tables downloaded from the UCSC Genome Browser database. To determine gene expression (GE) or alternative splicing (AS) changes in an unbiased way, the effective number of unique mappable positions in each transcript (i.e. the effective length) was determined by aligning sequences with unique transcriptomic alignment to the human genome using Bowtie. Reads with one unique genomic alignment were then aligned against the canonical transcriptome and, for each transcript, the number of reads with one unique transcriptomic alignment were counted. The expression level of genes was quantified as corrected ‘reads per kilobase of exon model per million mapped reads’ (cRPKM), a widely used metric to estimate gene expression levels. The expression cutoff was 0.5 cRPKM, corresponding to the transcript of the gene being present if there were ≥10 reads that mapped uniquely to a single genomic locus. Approximately 19,847 Ensembl annotated protein-coding genes were compared to create a gene list of differentially expressed genes. Genes were considered differentially expressed if fold changes in cRPKM was ≥2 in compound-treated versus DMSO-treated samples.

[1] = of 70 AS events, 5193892 vs DMSO, HeLa rtTA-HIV-DMls cells

SMILES: COc1ccc(C=NNC(=O)c2ccccc2O)cc1O [Compound 892, 2-hydroxy-N′-(3-hydroxy-4-methoxybenzylidene)benzohydrazide]
- PSI NUMB_2 (chr14:72815742-72815885, HeLa rtTA-HIV-DMls cells, replicates 25, 26, 27): 26.00
- DPSI NUMB_2 (chr14:72815742-72815885, mean PSI 5193892 minus DMSO, n=3, P Value 0.004): 8.67%
- PSI NUMB_2 (chr14:72820542-72820835, HeLa rtTA-HIV-DMls cells, replicates 25, 26, 27): 82.00 and 96.00 and 95.00
- DPSI NUMB_2 (chr14:72820542-72820835, mean PSI 5193892 minus DMSO, n=3, P Value 0.525): 4.67%
- PSI MARK3_1 (chr14:103034592-103034618, HeLa rtTA-HIV-DMls cells, replicates 25, 26, 27): 20.00 and 13.00 and 16.00
- DPSI MARK3_1 (chr14:103034592-103034618, mean PSI 5193892 minus DMSO, n=3, P Value 0.734): 1.00%
- PSI MARK3_1 (chr14:103036246-103036290, HeLa rtTA-HIV-DMls cells, replicates 25, 26, 27): 11.00 (2×) and 9.00
- PSI TPM1_1 (chr15:61140450-61140525, HeLa rtTA-HIV-DMls cells, replicates 25, 26, 27): 84.00 and 73.00 and 67.00
- DPSI TPM1_1 (chr15:61140450-61140525, mean PSI 5193892 minus DMSO, n=3): -6.67%
- PSI TPM1_1 (chr15:61140965-61141040, HeLa rtTA-HIV-DMls cells, replicates 25, 26, 27): 16.00 and 27.00 and 33.00
- DPSI TPM1_1 (chr15:61140965-61141040, mean PSI 5193892 minus DMSO, n=3): 6.67%
- PSI CA12_1 (chr15:61406400-61406485, HeLa rtTA-HIV-DMls cells, replicates 25, 26, 27): 96.00 and 100.00 and 95.00
- DPSI CA12_1 (chr15:61406400-61406485, mean PSI 5193892 minus DMSO, n=3, P Value 0.851): 0.33%
- PSI CA12_1 (chr15:61407349-61407382, HeLa rtTA-HIV-DMls cells, replicates 25, 26, 27): 15.00 and 7.00 and 4.00
- PSI MRIP_1 (chr17:17024646-17024708, HeLa rtTA-HIV-DMls cells, replicates 25, 26, 27): 32.00 and 31.00 (2×)
- DPSI MRIP_1 (chr17:17024646-17024708, mean PSI 5193892 minus DMSO, n=3, P Value 0.101): 1.00%
- PSI ATP6V0A1_1 (chr17:37919833-37920004, HeLa rtTA-HIV-DMls cells, replicates 25, 26, 27): 81.00 and 86.00 and 77.00
- DPSI ATP6V0A1_1 (chr17:37919833-37920004, mean PSI 5193892 minus DMSO, n=3, P Value 0.331): 3.33%
- PSI SPAG9_1 (chr17:46408223-46408261, HeLa rtTA-HIV-DMls cells, replicates 25, 26, 27): 25.00 and 17.00 and 16.00
- PSI TRIM37_1 (chr17:54433741-54433857, HeLa rtTA-HIV-DMls cells, replicates 25, 26, 27): 69.00 and 71.00 and 68.00
- DPSI TRIM37_1 (chr17:54433741-54433857, mean PSI 5193892 minus DMSO, n=3, P Value 0.063): -4.33%
- PSI FAM104A_1 (chr17:68720412-68720474, HeLa rtTA-HIV-DMls cells, replicates 25, 26, 27): 15.00 and 20.00 and 18.00
- DPSI FAM104A_1 (chr17:68720412-68720474, mean PSI 5193892 minus DMSO, n=3, P Value 0.523): -2.33%
- PSI EXOC7_1 (chr17:71598005-71598035, HeLa rtTA-HIV-DMls cells, replicates 25, 26, 27): 35.00 and 23.00 and 25.00
- DPSI EXOC7_1 (chr17:71598005-71598035, mean PSI 5193892 minus DMSO, n=3, P Value 0.709): 2.67%
- PSI EXOC7_1 (chr17:71598819-71598911, HeLa rtTA-HIV-DMls cells, replicates 25, 26, 27): 27.00
- DPSI EXOC7_1 (chr17:71598819-71598911, mean PSI 5193892 minus DMSO, n=3, P Value 0.003): 5.67%
- PSI MBD1_1 (chr18:46054554-46054721, HeLa rtTA-HIV-DMls cells, replicates 25, 26, 27): 28.00 and 15.00 and 9.00
- PSI APP_1 (chr21:26291546-26291602, HeLa rtTA-HIV-DMls cells, replicates 25, 26, 27): 30.00 and 32.00 and 34.00
- DPSI APP_1 (chr21:26291546-26291602, mean PSI 5193892 minus DMSO, n=3, P Value 0.279): 1.67%
- PSI APP_1 (chr21:26294201-26294368, HeLa rtTA-HIV-DMls cells, replicates 25, 26, 27): 71.00 and 77.00 and 81.00
- PSI POLDIP3_1 (chr22:41327919-41328006, HeLa rtTA-HIV-DMls cells, replicates 25, 26, 27): 68.00 and 67.00 and 64.00
- DPSI POLDIP3_1 (chr22:41327919-41328006, mean PSI 5193892 minus DMSO, n=3, P Value 0.421): 2.33%
- AS events with DPSI ≤ -10% [1]: 7
- AS events with DPSI ≥ 10% [1]: 2
- AS events with P ≤ 0.05 [1]: 18
